Source: patent publication US20120184624A1, “Treatment of Alzheimer's Disease” (priority 2010, published 2012)
Where two headings read alike, the source gives them in different places.

Assays:
tau = format: cell-based, mouse; conditions: for de-phosphorylation of tau at PP2A sensitive sites: increasing concentration of phenformin over 16 h or 1 h
Protocol: (§1) Primary cortical neurons were isolated from brain of wt or transgenic (Mapt^tm1(EGFP)klt Tg(MAPT)8cPdav/J; Jackson Laboratory) embryos at day 14.5. Cortices were collected in DMEM (Lonza) and cells were dissociated by incubation with Trypsin/EDTA for 6.5 min at 37° C. Cells were then diluted in neurobasal medium (Gibco-BRL) containing B27 supplement (Gibco BRL). Cells were plated at a density of 4.0×10^5 onto 0.2 mg/ml poly-D-lysin (Sigma) and 2 μg/ml Laminin (Sigma) coated 12 well plates. Neurons were incubated at 37° C. with 8% CO2. One hour after seeding a complete change of medium was performed. Later on, each 96 hours half volumes of the medium were replaced by fresh medium. After 7 days in culture neurons were treated.
(§2) Cells were incubated with the respective substances as follows: Metformin (Sigma) at final concentrations up to 2.5 mM for 1 to >24 hours, okadaic acid (Sigma) at final concentrations from 1 nM to 10 nM for 4 h, Fostricien (Sigma) at final concentration of 1 μM for 4 h and AICAR (cell signalling) at final concentration of 5 mM for 0.5-16 h. For cell treatment without insulin, medium containing B27+insulin supplement was replaced with medium containing B27-supplement without insulin 24 h before treatment. 3 groups of 2 mice were treated with or without 5 mg/l metformin in the drinking water.
(§3) Cell pellets were homogenized in Magic-Mix (48% UREA, 15 mM Tris-HCL pH 7.5, 8.7% Glycerin, 1% SDS, 0.004% Bromphenolblue, 143 mM Mercaptoethanol), sonicated and boiled for 5 min at 95° C. Proteins were resolved on 8 or 10% SDS gels and blotted onto PVDF-membranes (Roche). Antibodies used in this study were purchased from the following companies: Tau-5 (Biosource), anti-human PHF pSer202 (Thermo scientific), Tau pSer356 (Biosource), Tau pSer262 (Biosource), Tau pSer396 (Sigma), Actin (Sigma), ACC (cell signalling), ACC pSer79 (cell signalling), phospho-S6 ribosomal protein pSer241/244 (cell signalling), p70S6 Kinase (cell signalling), p70S6K pThr421/pSer424 (cell signalling), mTOR (cell signalling), AMPK (cell signallling, AMPK pThr172 (cell singnaling), HRP-anti-rabbit (Amersham), HRP-anti-mouse (Dianova). The resulting bands were quantified using Imagequant5.2. Statistical analyses were performed using SigmaStat software package (v 3.0, SPSS, USA). For timecourse or dose-response studies, data were analyses by one-way ANOVA with post hoc Dunnett's or Bonferonni test to accommodate for multiple comparisons. A Student's t-test was used for two-group comparisons, as appropriate.

[1] = molecular target: T1, purified PP2Ac (catalytic subunit of PP2A) (Homo sapiens, UniProt P67775); assay: PP2A activity assay (malachite green), purified PP2Ac; format: biochemical; conditions: 10 nM okadaic acid, 1 hour
T1 construct: purchased upstate
T1 sequence (P67775 whole entry): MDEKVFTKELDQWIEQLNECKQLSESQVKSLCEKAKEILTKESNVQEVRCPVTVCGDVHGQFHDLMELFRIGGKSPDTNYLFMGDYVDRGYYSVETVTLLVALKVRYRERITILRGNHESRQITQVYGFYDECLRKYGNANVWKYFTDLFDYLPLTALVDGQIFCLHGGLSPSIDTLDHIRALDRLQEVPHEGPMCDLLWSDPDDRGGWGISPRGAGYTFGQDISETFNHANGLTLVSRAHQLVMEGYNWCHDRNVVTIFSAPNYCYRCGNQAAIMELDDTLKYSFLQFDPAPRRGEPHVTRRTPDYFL
Protocol: (§4) Either purified PP2Ac (upstate), cell lysates or PP2A-holoenzymes, which were purified by immunoprecipitation using a PP2A-A-subunit antibody (Millipore), were incubated with or without 10 mM metformin or 10 nM okadaic acid for 1 hour. Afterwards PP2A phosphatase activity was determined using a malachite green assay kit (upstate) following the manufacturer's instructions.

PP2A-holoenzymes = assay: PP2A activity assay (malachite green), PP2A-holoenzymes immunopurified from HeLa cell lysates; format: biochemical; conditions: 10 nM okadaic acid, 1 hour
Protocol: as §4

p70S6kinase = assay: Phosphorylation of p70S6kinase in primary cortical neurons; format: cell-based, mouse; conditions: 0.25 mM phenformin over increasing time intervals
Protocol: as §1, §2, §3

ACC = assay: Phosphorylation of the AMPK target ACC (Ser79) in primary cortical neurons; format: cell-based, mouse; conditions: 0.25 mM phenformin, increasing time intervals
Protocol: as §1
as §2, with “3 groups of 2 mice were treated with or without 5 mg/l metformin in the drinking water.” left out
as §3, with “Proteins were resolved on 8 or 10% SDS gels and blotted onto PVDF-membranes (Roche).” left out, “Statistical analyses were performed using SigmaStat software package (v 3.0, SPSS, USA). For timecourse or dose-response studies, data were analyses by one-way ANOVA with post hoc Dunnett's or Bonferonni test to accommodate for multiple comparisons. A Student's t-test was used for two-group comparisons, as appropriate.” left out

[2] = increasing concentrations of okadaic acid (1 nM to 10 nM), four hours

| Structure (SMILES) | phosphorylation of Ser202 (tau; 10 nM okadaic acid alone, 4 hours) | phosphorylation of Ser202 relative to total tau (tau; [2]) | phosphorylation of Ser262 relative to total tau (tau; [2]) | phosphorylation of Ser356 relative to total tau (tau; [2]) | phosphorylation of Ser396 relative to total tau (tau; [2]) | PP2A activity of purified PP2Ac [1] | activity of the immunopurified PP2A protein complex (PP2A-holoenzymes) | de-phosphorylation of tau at PP2A sensitive sites (tau) | de-phosphorylation of tau at PP2A sensitive sites (tau; listed as Phenformin) | effect on Ser202 phosphorylation with and without okadaic acid pre-treatment (tau; okadaic acid 10 nM prior to phenformin 0.25 mM, 4 hours) | phosphorylation status of p70S6kinase (p70S6kinase) | phosphorylation status of p70S6kinase (p70S6kinase; listed as Phenformin) | ACC phosphorylation (Ser79) (ACC) |
| --- | --- | --- | --- | --- | --- | --- | --- | --- | --- | --- | --- | --- | --- |
| C=C1[C@@H](O)[C@@H]2O[C@]3(CC[C@H](/C=C/[C@@H](C)[C@@H]4CC(C)=C[C@@]5(O[C@H](C[C@@](C)(O)C(=O)O)CC[C@H]5O)O4)O3)CC[C@H]2O[C@@H]1[C@@H](O)C[C@H](C)[C@H]1O[C@@]2(CCCCO2)CC[C@H]1C [okadaic acid] | increased | increased with the concentration of OA | increased with the concentration of OA | increased with the concentration of OA | did not increase significantly | reduced | reduced |  |  |  |  |  |  |
| [H]/N=C(/N)N/C(=N/[H])NCCc1ccccc1 [phenformin, Phenformin] |  |  |  |  |  |  |  | Comparable results | induces de-phosphorylation | inhibition of PP2A blocks the Phenformin effect | promoted de-phosphorylation | decrease of pS6kinase phosphorylation | neither metformin (FIG. 4a) nor phenformin (FIG. 12) had an effect |
